Data as given in patent publication US6617282B2, “Processes for preparing 3-phenyl-2,4(1H, 3H)-pyrimidinediones” (Ishihara Sangyo Kaisha, Ltd., priority 2001, dated 2003).

How the values were obtained:
Assay in all cases: PRE emergent soil treatment, weed control
Type in all cases: in vivo
Conditions in all cases: applied to soil, 250 g/ha
[1] = tested on: velvetleaf (Abutilon theophrasti)
Excerpt: (§1) Compound B was applied to soil as a PRE emergent treatment at the rate of 250 g/ha. The broadleaf weed species velvetleaf (Abutilon theophrasti), redroot pigweed (Amaranthus retroflexus) and lambsquarters (Chenopodium album) were all 100% controlled by this treatment.

[2] = tested on: redroot pigweed (Amaranthus retroflexus)
Excerpt: as §1

[3] = tested on: lambsquarters (Chenopodium album)
Excerpt: as §1

Measured: controlled (weed control)

CC(C)=Nn1c(C(F)(F)F)cc(=O)n(-c2cc(Oc3ccccc3[N+](=O)[O-])c(Cl)cc2F)c1=O [Compound B, 3-[4-hloro-2-fluoro-5-(2-nitrophenoxy)phenyl]-1-[(1-methylethylidene)amino]-6-(trifluoromethyl)-2,4(1H,3H)-pyrimidinedione]
100%: all assays above
